Key:
[1] = test system: SU8686; assay: Cell proliferation assay, SU8686 (Pancreas); format: cell-based; details: Homo sapiens, SU.86.86, 48 hours
Method: (§1) Cell proliferation was analyzed after 48 hours of in vitro treatment using the CellTiter 96 Aqueous One Solution Cell Proliferation Assay (Promega, Madison, Wis.). This is a colorimetric method for determining the number of viable cells in proliferation.
(§2) For the assay, suspension cells were cultured by triplicate at a density of 1×10^6 cells/ml in 96-well plates (100.000 cells/well, 100 μl/well), except for OCILY-3 and OCILY-10 cell lines which were cultured at a density of 0.5×10^6 cells/ml (50.000 cells/well, 100 μl/well) and for HepG2, Hep3B and PLC/PRF/5 cell ines which were cultured at a density of 3000 cells/well, 100 μl/well). Adherent cells were obtained from 80-90% confluent flasks and 100 μl of cells were seeded at a density of 5000 cells/well in 96-well plates by triplicate. Before addition of the compounds, adherent cells were allowed to attach to the bottom of the wells for 12 hours. […]
(§3) After 48 hours of treatment, plates with suspension cells were centrifuged at 800 g for 10 minutes and medium was removed. […] After 1-3 hours of incubation at 37° C., absorbance was measured at 490 nm in a 96-well plate reader. The background absorbance was measured in wells with only cell line medium and solution reagent. Data was calculated as a percentage of total absorbance of treated cell/absorbance of non treated cells. […]

[2] = test system: WM-35; assay: Cell proliferation assay, WM-35 (Melanoma); format: cell-based; details: WM35, 48 hours
Method: as §1, §2, §3

[3] = test system: MGH-U3; assay: Cell proliferation assay, MGH-U3 (Bladder); format: cell-based; details: 48 hours
Method: as §1, §2, §3

[4] = test system: U87-MG; assay: Cell proliferation assay, U87-MG (Glioblastoma); format: cell-based; details: Homo sapiens, U-87 MG, 48 hours
Method: as §1, §2, §3

[5] = test system: A375; assay: Cell proliferation assay, A375 (Melanoma); format: cell-based; details: Homo sapiens, A-375, 48 hours
Method: as §1, §2, §3

[6] = test system: OCI-Ly3; assay: Cell proliferation assay, OCI-Ly3 (ABC-DLBCL); format: cell-based; details: Homo sapiens, 48 hours of treatment, Table 3
[7] = test system: UACC-62; assay: Cell proliferation assay, UACC-62 (Melanoma); format: cell-based; details: Homo sapiens, 48 hours
Method: as §1, §2, §3

[8] = test system: SK-MEL-103; assay: Cell proliferation assay, SK-MEL-103 (Melanoma); format: cell-based; details: Homo sapiens, 48 hours
Method: as §1, §2, §3

[9] = molecular target: DNMT3A/3L (Homo sapiens, UniProt Q9Y6K1); assay: DNMT3A enzyme activity assay (chemiluminescence BPS DNMT Universal Assay Kit); format: biochemical
Method: DNMT3A and DNMT3B activity assays were carried out with the chemiluminiscence BPS DNMT Universal Assay Kit (BPS#52035) using a strip 96-well plate pre-coated with DNMT substrate.
The enzyme activity assay protocol is as follows: • Rehydrate the microwells by adding 150 μL of TBST buffer (1× Tris-buffered saline (TBS), pH 8.0, containing 0.05% Tween-20) to every well. Incubate 15 minutes at room temperature. • Dilute each purified DNMT [DNMT3A/3L (BPS#51106) or DNMT3B/3L (BPS#51109)] in 1×DNMT assay buffer 2 (BPS#52201) at 5-10 ng/μL. Keep diluted enzyme on ice until use. • Prepare 50 μL of reaction mixture consisting of 20 μL of DNMT (5-10 ng/μL), 12.5 μL of 4×DNMT assay buffer 2 (BPS#52201), 2.5 μL of S-adenosylmethionine 400 μM, test compound at concentrations ranging from 3 nM to 10 μM and H2O up to 50 μL. • Add the entire reaction mixture to the substrate coated wells. […]
Incubate for 30 min at room temperature with slow shaking. • Wash plate three times with TBST buffer and incubate in Blocking buffer shaking on a rotating platform for 10 min. […] Immediately read luminescence using a BioTek Synergy™2 microplate reader.
The chemiluminescence intensity data were analyzed and compared. […] Calculated IC50 values were determined using non-linear regression analysis of Sigmoidal dose-response curve generated with a four-parameters inhibition curve.

[10] = test system: 1205-LU; assay: Cell proliferation assay, 1205-LU (Melanoma); format: cell-based; details: Homo sapiens, 48 hours
Method: as §1, §2, §3

[11] = test system: DU145; assay: Cell proliferation assay, DU145 (Prostate); format: cell-based; details: Homo sapiens, DU-145, 48 hours
Method: as §1, §2, §3

[12] = test system: PLC/PRF/5; assay: Cell proliferation assay, PLC/PRF/5 (HCC); format: cell-based; details: Homo sapiens, 48 hours of treatment, Table 3
[13] = test system: OCI-AML-2; assay: Cell proliferation assay, OCI-AML-2 (AML); format: cell-based; details: Homo sapiens
Method: as §1
(§4) For the assay, suspension cells were cultured by triplicate at a density of 1×10^6 cells/ml in 96-well plates (100.000 cells/well, 100 μl/well), except for OCILY-3 and OCILY-10 cell lines which were cultured at a density of 0.5×10^6 cells/ml (50.000 cells/well, 100 μl/well) and for HepG2, Hep3B and PLC/PRF/5 cell ines which were cultured at a density of 3000 cells/well, 100 μl/well). Adherent cells were obtained from 80-90% confluent flasks and 100 μl of cells were seeded at a density of 5000 cells/well in 96-well plates by triplicate. Before addition of the compounds, adherent cells were allowed to attach to the bottom of the wells for 12 hours. In all cases, only the 60 inner wells were used to avoid any border effects.
(§5) After 48 hours of treatment, plates with suspension cells were centrifuged at 800 g for 10 minutes and medium was removed. The plates with adherent cells were flicked to remove medium. Then, cells were incubated with 100 ul/well of medium and 20 ul/well of CellTiter 96 Aqueous One Solution reagent. After 1-3 hours of incubation at 37° C., absorbance was measured at 490 nm in a 96-well plate reader. The background absorbance was measured in wells with only cell line medium and solution reagent. Data was calculated as a percentage of total absorbance of treated cell/absorbance of non treated cells.
Compounds 3-04 and 3-07 were tested against different solid tumour and oncohematological cell lines using the cell proliferation protocol described above.

[14] = test system: JJN3; assay: Cell proliferation assay, JJN3 (MM); format: cell-based; details: Homo sapiens, JJN-3, Table 5 comparison
Method: as §1, §4, §5

[15] = test system: LAL-CUN-2; assay: Cell proliferation assay, LAL-CUN-2 (ALL); format: cell-based
Method: as §1, §4, §5

[16] = test system: Sk-Hep1; assay: Cell proliferation assay, Sk-Hep1 (Hepatocarcinoma); format: cell-based; details: Homo sapiens, 48 hours
Method: as §1, §2, §3

[17] = test system: CEMO-1; assay: Cell proliferation assay, CEMO-1 (ALL); format: cell-based, human; details: Homo sapiens
[18] = test system: HBL-2; assay: Cell proliferation assay, HBL-2 (MCL); format: cell-based; details: HBL2, 48 hours
Method: as §1, §2, §3

[19] = test system: OCI-Ly7; assay: Cell proliferation assay, OCI-Ly7 (GC-DLBCL); format: cell-based; details: Homo sapiens, 48 hours
Method: as §1, §2, §3

[20] = test system: OCI-Ly10; assay: Cell proliferation assay, OCI-Ly10 (ABC-DLBCL); format: cell-based; details: Homo sapiens, 48 hours of treatment, Table 3
Method: as §1, §4, §5

[21] = test system: OCI-Ly1; assay: Cell proliferation assay, OCI-Ly1 (GC-DLBCL); format: cell-based; details: Homo sapiens, 48 hours
Method: as §1, §2, §3

Chain of DNMT3A/3L (Q9Y6K1 whole entry, looked up): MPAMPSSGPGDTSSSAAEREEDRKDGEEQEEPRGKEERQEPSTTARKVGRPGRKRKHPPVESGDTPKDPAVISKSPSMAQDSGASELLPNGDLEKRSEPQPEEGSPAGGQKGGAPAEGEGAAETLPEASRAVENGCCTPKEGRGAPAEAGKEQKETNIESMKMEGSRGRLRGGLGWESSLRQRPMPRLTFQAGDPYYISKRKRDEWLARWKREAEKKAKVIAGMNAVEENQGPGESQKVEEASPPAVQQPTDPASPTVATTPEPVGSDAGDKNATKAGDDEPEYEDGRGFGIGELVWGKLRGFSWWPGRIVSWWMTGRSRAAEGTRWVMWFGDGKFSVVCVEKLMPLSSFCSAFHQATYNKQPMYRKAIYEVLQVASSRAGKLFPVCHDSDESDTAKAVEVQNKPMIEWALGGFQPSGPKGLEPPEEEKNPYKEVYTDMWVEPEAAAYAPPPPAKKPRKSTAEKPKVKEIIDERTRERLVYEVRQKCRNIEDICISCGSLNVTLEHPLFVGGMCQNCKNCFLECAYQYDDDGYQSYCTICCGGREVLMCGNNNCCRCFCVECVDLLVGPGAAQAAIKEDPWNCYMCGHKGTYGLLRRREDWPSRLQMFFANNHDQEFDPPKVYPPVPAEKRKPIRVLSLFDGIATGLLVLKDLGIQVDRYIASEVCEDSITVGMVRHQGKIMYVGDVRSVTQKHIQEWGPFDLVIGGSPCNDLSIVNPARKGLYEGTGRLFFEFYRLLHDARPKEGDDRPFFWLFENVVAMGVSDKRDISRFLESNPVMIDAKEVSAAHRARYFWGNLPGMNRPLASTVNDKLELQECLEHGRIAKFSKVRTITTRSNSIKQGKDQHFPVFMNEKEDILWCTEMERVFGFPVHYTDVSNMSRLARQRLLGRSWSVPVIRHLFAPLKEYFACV
Chain of DNMT3A/3L (Q9UJW3 whole entry partner): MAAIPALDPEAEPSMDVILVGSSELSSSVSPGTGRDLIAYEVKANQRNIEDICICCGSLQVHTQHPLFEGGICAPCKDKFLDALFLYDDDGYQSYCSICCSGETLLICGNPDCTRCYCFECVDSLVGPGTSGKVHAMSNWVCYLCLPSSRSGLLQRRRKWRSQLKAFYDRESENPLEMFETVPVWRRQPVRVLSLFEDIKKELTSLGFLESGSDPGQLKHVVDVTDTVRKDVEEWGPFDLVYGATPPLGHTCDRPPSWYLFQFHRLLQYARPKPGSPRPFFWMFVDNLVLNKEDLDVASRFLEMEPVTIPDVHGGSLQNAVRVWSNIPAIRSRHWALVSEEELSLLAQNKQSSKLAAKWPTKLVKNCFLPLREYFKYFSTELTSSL

`COc1cc2c(NCC3CCN(C)CC3)cc(-c3ccc(C)o3)nc2cc1OCCCN1CCCC1` [Compound 3-07] showed a GI50 [1] of 100 to 1000 nM, a GI50 [2] of 100 to 1000 nM and a GI50 [3] of 100 to 1000 nM. The GI50 [4] was 100 to 1000 nM, the GI50 [5] was ≤ 100 nM and the GI50 [6] was 100 to 1000 nM. For the same compound, the GI50 [7] was 100 to 1000 nM, the GI50 [8] was ≤ 100 nM and the IC50 [9] was < 100 nM. For the same compound, the GI50 [10] was ≤ 100 nM, the GI50 [11] was 100 to 1000 nM and the GI50 [12] was 100 to 1000 nM. The GI50 ([13]; OCI-AML2, 48 hours, Table 4) was 100 to 1000 nM, the GI50 ([13]; OCI-AML2, Table 5 comparison) was 100 to 1000 nM and the GI50 [14] was 1000 to 10000 nM. It also gave a GI50 ([15]; 48 hours of treatment, Table 3) of 100 to 1000 nM, a GI50 ([15]; ALL, Table 5 comparison) of 100 to 1000 nM and a GI50 [16] of 100 to 1000 nM.

Compound `COc1cc2c(NC3CCN(C)CC3)cc(-c3ccc(C)o3)nc2cc1OCCCN1CCCC1.O=C(O)C(F)(F)F` [Compound 3-04, 6-methoxy-2-(5-methyl-2-furyl)-N-(1-methyl-4-piperidyl)-7-(3-pyrrolidin-1-ylpropoxy)quinolin-4-amine; 2,2,2-trifluoroacetic acid] has a GI50 [1] of 1000 to 10000 nM, a GI50 [2] of 100 to 1000 nM and a GI50 ([17]; 48 hours of treatment, Table 3) of 100 to 1000 nM. It also gave a GI50 ([17]; ALL, Table 5 comparison) of 100 to 1000 nM, a GI50 [18] of 100 to 1000 nM and a GI50 [3] of 100 to 1000 nM. It also gave a GI50 [19] of 100 to 1000 nM, a GI50 [4] of 100 to 1000 nM and a GI50 [20] of 100 to 1000 nM. It also gave a GI50 [5] of 100 to 1000 nM, a GI50 [6] of 100 to 1000 nM and a GI50 [7] of 100 to 1000 nM. For the same compound, the GI50 [8] was 100 to 1000 nM, the IC50 [9] was < 100 nM and the GI50 [10] was 100 to 1000 nM. The GI50 [11] was 100 to 1000 nM, the GI50 [12] was 100 to 1000 nM and the GI50 ([13]; OCI-AML2, 48 hours, Table 4) was 100 to 1000 nM. It also gave a GI50 ([13]; OCI-AML2, Table 5 comparison) of 100 to 1000 nM, a GI50 [14] of 1000 to 10000 nM and a GI50 ([15]; 48 hours of treatment, Table 3) of 100 to 1000 nM. The GI50 ([15]; ALL, Table 5 comparison) was 100 to 1000 nM, the GI50 [16] was 100 to 1000 nM and the GI50 [21] was 100 to 1000 nM.

Reference: patent publication US9840500B2, “Compounds as dual inhibitors of histone methyltransferases and DNA methyltransferases” (FUNDACIÓN PARA LA INVESTIGACIÓN MÉDICA APLICADA, priority 2014, dated 2017)
